{"source": "patent US20240342121A1", "about": "“THE USE OF BETA-HYDROXYBUTYRATES FOR THE TREATMENT OR PREVENTION OF ANEURYSMS AND DISSECTIONS” (priority 2021, published 2024)", "key": {"[1]": {"tested_on": "angiotensin II (AII)-induced AAA", "assay": "AII-induced AAA mouse model, post-treatment", "type": "in vivo", "conditions": "injection every other day for two weeks, FIG. 2E"}, "normal SMCs (NC)": {"tested_on": "normal SMCs (NC)", "assay": "Caspase 3 activity assay on normal SMCs", "type": "cell-based", "conditions": "FIG. 2I", "description": "FIGS. 2A-2L. (a) Cytotoxicity assay of normal smooth muscle cells (NS) and senescent smooth muscle cells (SMCs). Replicative senescent SMCs (RS) and premature senescent SMCs, stimulated by H2O2 (HP), arsenic (Ars), and Nutlin 3a (Nut) treatment were treated with βHB, s-βHB, and ABT-737. (b) Flow cytometry analysis of apoptosis by βHB or s-βHB in radiation (10 Gy)-induced senescent SMC. (c) Quantitation of apoptotic cell and senescent cell after treating βHB and s-βHB in radiation-induced senescent SMC. (d) Representative aorta image of AII-infused mice with post-treatment of ABT-737, βHB and s-βHB. (e) External diameter of abdominal aorta infused with AII and post-treated with ABT-737 βHB and s-βHB. (f) SA-βGal activity assay of the whole aorta infused with AII, and post-treated with ABT-737, KD, or KE. (g) Quantitation of senescent area on aorta of AII-infused mice, and post-treated with KD, KE and ABT-737. (h) TUNEL assay on the abdominal aorta of AII infused mice, and treated with ABT-737, βHB, or s-βHB. SM-α Actin (SMA) and DAPI are co-stained after TUNEL reaction. (i) Caspase 3 activity assay on normal SMCs (NC) treated with βHB, or s-βHB, and ABT-737 comparing to normal cells pretreated with Nutlin-3a. (j) Caspase 3 activity assay on senescent SMCs (SNC) treated with βHB, or s-βHB, and ABT-737 compared to senescent cells pretreated with pifithrin-α. (k) Western blot analysis for p53 and puma expression on abdominal aorta tissue from mice treated with AII or KE. (I) Immunohistochemistry staining for puma expression on abdominal aorta infused by AII and post-treated with KE.\nTo overcome the anti-apoptotic barrier of senescence cells, senolytics usually target p53/Bcl2 cascades. Moreover, p53 is considered as a barrier to prevent apoptosis in senescence cells. Therefore, it was investigated if βHB-mediated apoptosis is p53 dependent. […] To further validate p53 dependent apoptosis on AAA, p53 activation and puma expression were investigated. […] In addition, inflammatory response accompanying the apoptosis of senescence cells was observed specifically in the abdominal aorta tissue, while systemic inflammation decreased during ketotherapy (FIGS. 10A-F). […] Ketotherapy can lower the blood pressure caused by AII infusion, which is not the case with ABT-737 (FIGS. 10H-J)."}, "[2]": {"tested_on": "angiotensin II (AII)-induced AAA", "assay": "AII-induced AAA mouse model, post-treatment", "type": "in vivo", "description": "To determine if senescence is a major cause of aneurysm development, the association between senescence and aneurysms using the angiotensin II (AII)-induced AAA model was investigated. Mice were infused AII for four weeks using osmotic mini-pump implantation into Apoe^−/− transgenic mouse.\nTo investigate the therapeutic potential of ketotherapy for abdominal aortic aneurysm (AAA), Ketogenic-diet (KD) and Ketone-ester (KE) were provided to angiotensin II (AII)-induced mouse model of AAA (FIG. 6). […] After completing AII infusion, the mice were post-treated with KD and KE for two to four weeks.\nTo investigate the time-dependent reduction of aorta diameter, the inner diameter of the aorta using ultrasound analysis was measured."}, "CaCl2-induced AAA": {"tested_on": "CaCl2-induced AAA", "assay": "CaCl2-induced AAA animal model, post-treatment", "type": "in vivo, mouse", "description": "FIGS. 5A-5J. (a) Representative image of aorta which developed CaCl2)-induced AAA, and post-treated with KD, KE, βHB, s-βHB, or ABT-737. KD is provided to mice for 4 weeks, KE is administrated with drinking water, βHB, s-βHB or ABT-737 are IP injected for 2 weeks with 48h intervals. (b) Incidence of AAA by CaCl2) treatment and proportion of mice recovered from the AAA after post-treatment of KD, KE, βHB and s-βHB for 2 weeks. (c) Time-dependent observation of inner diameter after CaCl2) treatment and post-treatment of KD or KE (28˜56 days after surgery). (d) Comparison of ultrasound images of CaCl2)-induced AAA to the identical aorta post-treated with βHB for 2 weeks. (e) H&E staining of aorta from the mice developed with CaCl2)-induced AAA, and post-treated with KD, KE, βHB, and s-βHB. (f) SA β-Gal activity assay on aorta which developed CaCl2)-induced AAA, and post-treated with KD, KE, βHB, s-βHB, or ABT-737. (g) Quantitation of senescent area on aorta developed with CaCl2)-induced AAA, and post-treated with KD, KE, βHB, s-βHB. (h) Verhoeff Van Gieson/EVG staining of abdominal aorta developed with CaCl2)-induced AAA, post-treated with KD, KE, βHB and s-βHB. (i) Average number of elastic fibers on abdominal aorta presented at FIG. 5H. (j) Measurement of Pulse Wave Velocity (PWV) on CaCl2)-infused mice with post-treatment of KD, KE, βHB, and s-βHB.\n(§1) To confirm the possibility that the therapeutic effect of βHB on AAA is not only applied to AII-induced AAA, the CaCl2)-induced AAA animal model was also examined as well (FIG. 5A).\nTo further validate the therapeutic efficacy of s-βHB on aneurysms, we used a CaCl2-induced AAA animal model as well as an angiotensin II infusion model. […] Two-way ANOVA, s-βHB vs βHB, #P<0.01, n=10. Since the elimination of senescent SMCs is critical for the recovery of AAA, we investigated that s-βHB is also effective to remove senescent cells in CaCl2)-induced aneurysms. […] Student's T-test for s-βHB vs βHB, ^#P<0.05, n=8."}, "[3]": {"tested_on": "AII-induced AAA development", "assay": "Pretreatment with ketotherapy in AII-induced AAA", "type": "in vivo, mouse", "conditions": "FIG. 8A-C", "description": "Senescence is considered to be major risk factor that promotes AAA development. […] To determine whether vascular senescence is critical for AAA formation, senescence was prevented by pretreatment with ketotherapy.\nas §1"}, "[4]": {"tested_on": "aortic dissection (TAD, AAD)", "assay": "BAPN + AngII mouse model of aortic dissection", "type": "in vivo", "description": "(§2) (a) schematic description of aortic dissection model and ketone treatment. Five-week-old C57BL/6 mice were continuously treated with β-aminopropionitrile (BAPN, 3 g/L/day in drinking water) for 28 days. To test the impacts of ketone body, BAPN-treated mice at day 17 to day 31 were given ketone ester (KE, D-BHB 1-3 butanediol monoester) (20 g/L and 50 gL at 5 mL per day) in drinking water. Further, the BAPN-treated mice, with or without ketone treatment, were continuously infused with angiotensin (AngII, 1.44 mg/kg/day) for three days via subcutaneously implanted osmotic pumps). Three days after AngII infusion, the mice were euthanized to assay for aortic dissection.\nas §2, with “Five week old C57BL/6” for “(a) schematic description of aortic dissection model and ketone treatment. Five-week-old C57BL/6”, “drinking water))” for “drinking water)”, “50 g/L)” for “50 gL at 5 mL per day)”, “euthanized for” for “euthanized to”, “assay” for “assay for”"}, "[5]": {"conditions": "Soto-Mota et al. 2019; cited from earlier work"}, "[6]": {"assay": "Metabolic alterations by post-treatment", "type": "in vivo, mouse", "conditions": "four weeks, FIG. 7", "description": "In order to identify the primary factors for reversing AAA formation, metabolic alterations by post-treatment were investigated. […] Thus, abnormal lipid metabolism caused by KD is unlikely required or helpful for AAA recovery."}}, "note": "Entries after “also recorded” stand apart in the source; their conditions may differ.", "data": [{"smiles": "CN(C)CC[C@H](CSc1ccccc1)Nc1ccc(S(=O)(=O)NC(=O)c2ccc(N3CCN(Cc4ccccc4-c4ccc(Cl)cc4)CC3)cc2)cc1[N+](=O)[O-]", "note": "[ABT-737, reference compound]", "values": [{"measurement": "external diameter of the abdominal aorta", "setting": "[1]", "result": "significantly reduced"}, {"measurement": "apoptosis in normal cells after p53 stabilization", "setting": "normal SMCs (NC); after p53 stabilization by Nutlin 3a", "result": "triggers apoptosis"}, {"measurement": "apoptosis in normal cells (NC)", "setting": "normal SMCs (NC); without Nutlin 3a", "result": "did not induce apoptosis"}, {"measurement": "TUNEL assay, apoptosis of senescent plaque in the aneurysm", "setting": "[2]; FIG. 2H", "result": "induced targeted apoptosis of senescent plaque"}, {"measurement": "branched elastic fibers, Verhoeff Van Gieson/EVG stain", "setting": "[2]; FIG. 3C", "result": "less branched elastic fibers"}, {"measurement": "number of elastic layers / elastic recovery", "setting": "[2]; FIG. 3D", "result": "less effective on elastic recovery"}, {"measurement": "aortic dissection", "setting": "[2]; blood clots inside aneurysm plaque, FIG. 3B", "result": "caused aortic dissection"}, {"measurement": "volume of aneurysm plaque", "setting": "[2]; injected", "result": "successfully reduced"}, {"measurement": "AAA on whole aorta images", "setting": "[2]; injected every other day for two weeks, FIG. 2D", "result": "successfully rescued"}, {"measurement": "mice with abdominal rupture resulting in sudden death", "setting": "[2]; injected mice, FIG. 3A", "result": 30, "unit": "%"}]}, {"smiles": "C[C@@H](O)CCOC(=O)C[C@@H](C)O", "note": "[KE, [(3R)-3-hydroxybutyl] (3R)-3-hydroxybutanoate]", "values": [{"measurement": "recovery from CaCl2-induced AAA", "setting": "CaCl2-induced AAA; FIGS. 5A and 5B", "result": "Effective recovery"}, {"measurement": "AAA progression", "setting": "CaCl2-induced AAA; post-treatment after four weeks, FIG. 5C", "result": "inhibited AAA progression"}, {"measurement": "AII-induced AAA development", "setting": "[3]", "result": "strongly inhibited"}, {"measurement": "incidence of TAD", "setting": "[4]; 20 g/L and 50 g/L in drinking water, day 17 to day 31, FIG. 19B", "result": "significantly reduces"}, {"measurement": "incidence of AAD", "setting": "[4]; 20 g/L and 50 g/L in drinking water, day 17 to day 31, FIG. 19C", "result": "significantly reduces"}, {"measurement": "survival rate", "setting": "[4]; high dose 50 g/L, FIG. 19D", "result": "significantly increase"}, {"measurement": "aneurysm formation, ultrasound images of identical mouse aorta", "setting": "[2]; FIG. 1D", "result": "reverts aneurysm formation"}, {"measurement": "abdominal aorta stiffness, Pulse Wave Velocity (PWV)", "setting": "[2]; FIG. 3H, FIG. 18A", "result": "ameliorated vascular stiffness; also recorded: reversed aneurysm-associated aortic stiffness"}, {"measurement": "SMC markers (HEXIM1, Calponin 1, SM α-Actin) and dedifferentiation markers (Oct4, MMP2), Western blot", "setting": "[2]; abdominal aorta, post-treatment, FIG. 3E", "result": "reversed all the markers of dedifferentiation and simultaneously recovered SMC markers"}, {"measurement": "degenerative markers in PVAT", "setting": "[2]; abdominal versus thoracic PVAT, FIG. 3G", "result": "specifically reverses degenerative markers, col1A1, RUNX2, and PU.1 in abdominal perivascular adipose (PVAT), not in thoracic PVAT"}, {"measurement": "recovered proportion of AII-induced AAA", "setting": "[2]; post-treatment 2 to 4 weeks after 4 weeks AII infusion, C57Bl6 ApoE−/− mice, AAA incidence 60%, FIG. 1A", "result": 26, "unit": "%"}, {"measurement": "proportion of AII-induced AAA", "setting": "[2]; post-treatment 2 to 4 weeks, FIG. 1A", "result": "successfully reduced"}, {"measurement": "enlarged external diameter of AAA", "setting": "[2]; post-treatment of KD and KE, FIG. 1C", "result": "decreased significantly"}, {"measurement": "collagen network, Masson's trichrome staining", "setting": "[2]; post-treatment, FIG. 3F", "result": "reconstituted at the perivascular area"}, {"measurement": "myofibroblast, SM α-Actin and FSP co-staining in aortic wall", "setting": "[2]; post-treatment, FIGS. 17A-17B", "result": "increases"}, {"measurement": "p53 activation and puma expression on abdominal aorta", "setting": "[2]; post-treatment, Western blot and IHC, FIG. 2K", "result": "activated phosphorylation of p53 and elevated puma expression"}, {"measurement": "metabolic fate (hydrolysis)", "setting": "[5]", "result": "complete enzymatic hydrolysis to release R-βHB and R-butane-1,3-diol"}, {"measurement": "metabolic alterations (body weight, fat mass, blood glucose, TG, liver lipid, insulin resistance)", "setting": "[6]", "result": "did not cause metabolic changes such as insulin resistance"}]}]}
